Where a name gives a salt, the structure may show the parent alone.
Key:
[1] = molecular target: Nav 1.7 (Homo sapiens (Human), UniProt Q15858); experiment: Nav 1.7 in vitro assay (IonWorks Quattro population patch-clamp); type: cell-based; settings: 293 cells stably transfected with Nav 1.7; for IC50: 26th pulse to -20 mV, 5 Hz
Experimental: (§1) Nav 1.7 and Nav 1.5 In Vitro Assay
(§2) 293 cells stably transfected with either Nav 1.7 or with Nav 1.5 were recorded in population patch-clamp mode with the IonWorks® Quattro automated electrophysiology system in accordance with the manufacturer's specifications (Molecular Devices, LLC, Sunnyvale, Calif.). Sodium channel currents were measured in response to a train of depolarizations that induced successively greater inactivation.
(§3) Cells were held at −110 mV for three seconds (Nav 1.7) or half a second (Nav 1.5) from a holding voltage of −15 mV, then put through a series of 26 pulses of 150 msec duration to −20 mV at a frequency of 5 Hz. Cells were then left unclamped for a period of 3 to 8 minutes while a single concentration of test compound was added. Cells were then reclamped and put through the same voltage protocol. Current at the end of the 26th pulse to −20 mV was subtracted from the peak current evoked by the 26th pulse to −20 mV to correct for leak current. Percent block was calculated for each concentration in duplicate, and IC50 curves were fitted to percent block as a function of concentration.

[2] = molecular target: Nav 1.5 (Homo sapiens (Human), UniProt Q14524); experiment: Nav 1.5 in vitro assay (IonWorks Quattro population patch-clamp); type: cell-based; settings: 293 cells stably transfected with Nav 1.5; 26th pulse to -20 mV, 5 Hz
Nav 1.5, sequence (Q14524 whole entry): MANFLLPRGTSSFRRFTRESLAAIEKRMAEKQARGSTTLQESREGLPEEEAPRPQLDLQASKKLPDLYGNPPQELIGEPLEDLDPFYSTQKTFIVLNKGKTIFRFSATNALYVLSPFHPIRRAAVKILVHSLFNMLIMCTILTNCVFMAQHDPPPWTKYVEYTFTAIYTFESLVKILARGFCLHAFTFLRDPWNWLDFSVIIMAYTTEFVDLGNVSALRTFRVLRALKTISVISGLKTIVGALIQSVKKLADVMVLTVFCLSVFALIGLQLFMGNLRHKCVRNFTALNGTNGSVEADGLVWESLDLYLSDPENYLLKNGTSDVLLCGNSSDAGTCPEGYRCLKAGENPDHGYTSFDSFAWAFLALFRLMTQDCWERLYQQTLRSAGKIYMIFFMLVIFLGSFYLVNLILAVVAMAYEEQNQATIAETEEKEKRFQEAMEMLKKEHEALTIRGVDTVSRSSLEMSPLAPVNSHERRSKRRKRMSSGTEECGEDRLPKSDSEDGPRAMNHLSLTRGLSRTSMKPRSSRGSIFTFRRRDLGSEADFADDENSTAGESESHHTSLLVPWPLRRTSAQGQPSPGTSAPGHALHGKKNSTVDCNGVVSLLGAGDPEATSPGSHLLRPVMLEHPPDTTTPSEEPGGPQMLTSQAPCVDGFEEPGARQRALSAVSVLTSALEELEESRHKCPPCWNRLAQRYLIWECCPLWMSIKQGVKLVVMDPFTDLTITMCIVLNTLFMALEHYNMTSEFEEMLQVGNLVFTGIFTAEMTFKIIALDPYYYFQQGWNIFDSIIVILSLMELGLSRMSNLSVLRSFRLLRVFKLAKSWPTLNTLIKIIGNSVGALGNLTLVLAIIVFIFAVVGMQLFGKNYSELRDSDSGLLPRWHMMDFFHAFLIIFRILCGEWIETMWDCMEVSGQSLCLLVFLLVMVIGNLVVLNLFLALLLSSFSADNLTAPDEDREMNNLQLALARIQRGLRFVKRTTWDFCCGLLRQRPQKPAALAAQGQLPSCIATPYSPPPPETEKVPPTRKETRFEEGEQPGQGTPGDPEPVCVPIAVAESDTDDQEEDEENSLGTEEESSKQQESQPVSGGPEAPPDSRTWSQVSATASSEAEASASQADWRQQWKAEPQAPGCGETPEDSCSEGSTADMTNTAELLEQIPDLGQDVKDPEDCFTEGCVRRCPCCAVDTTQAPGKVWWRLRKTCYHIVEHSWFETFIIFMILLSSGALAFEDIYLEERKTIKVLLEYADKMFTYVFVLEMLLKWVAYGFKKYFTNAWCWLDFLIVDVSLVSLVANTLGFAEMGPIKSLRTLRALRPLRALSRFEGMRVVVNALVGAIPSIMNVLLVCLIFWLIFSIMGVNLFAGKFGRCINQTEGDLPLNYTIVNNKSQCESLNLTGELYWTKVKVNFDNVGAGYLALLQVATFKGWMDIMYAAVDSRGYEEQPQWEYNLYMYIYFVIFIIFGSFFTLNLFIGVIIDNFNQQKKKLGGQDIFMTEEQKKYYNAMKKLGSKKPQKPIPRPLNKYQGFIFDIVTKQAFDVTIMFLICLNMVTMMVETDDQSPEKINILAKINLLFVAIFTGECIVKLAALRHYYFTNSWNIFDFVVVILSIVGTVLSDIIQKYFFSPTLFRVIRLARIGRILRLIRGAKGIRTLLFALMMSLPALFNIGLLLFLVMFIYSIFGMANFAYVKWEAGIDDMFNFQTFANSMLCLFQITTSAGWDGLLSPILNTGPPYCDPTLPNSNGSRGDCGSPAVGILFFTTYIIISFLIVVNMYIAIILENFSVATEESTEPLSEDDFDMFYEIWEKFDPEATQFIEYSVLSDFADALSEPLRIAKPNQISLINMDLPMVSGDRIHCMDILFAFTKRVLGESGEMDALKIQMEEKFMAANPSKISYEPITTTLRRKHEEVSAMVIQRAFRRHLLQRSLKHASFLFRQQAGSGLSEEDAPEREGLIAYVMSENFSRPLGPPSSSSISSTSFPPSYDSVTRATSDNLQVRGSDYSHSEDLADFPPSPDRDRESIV
Experimental: as §1, §2, §3

Nav 1.7, sequence (Q15858 whole entry): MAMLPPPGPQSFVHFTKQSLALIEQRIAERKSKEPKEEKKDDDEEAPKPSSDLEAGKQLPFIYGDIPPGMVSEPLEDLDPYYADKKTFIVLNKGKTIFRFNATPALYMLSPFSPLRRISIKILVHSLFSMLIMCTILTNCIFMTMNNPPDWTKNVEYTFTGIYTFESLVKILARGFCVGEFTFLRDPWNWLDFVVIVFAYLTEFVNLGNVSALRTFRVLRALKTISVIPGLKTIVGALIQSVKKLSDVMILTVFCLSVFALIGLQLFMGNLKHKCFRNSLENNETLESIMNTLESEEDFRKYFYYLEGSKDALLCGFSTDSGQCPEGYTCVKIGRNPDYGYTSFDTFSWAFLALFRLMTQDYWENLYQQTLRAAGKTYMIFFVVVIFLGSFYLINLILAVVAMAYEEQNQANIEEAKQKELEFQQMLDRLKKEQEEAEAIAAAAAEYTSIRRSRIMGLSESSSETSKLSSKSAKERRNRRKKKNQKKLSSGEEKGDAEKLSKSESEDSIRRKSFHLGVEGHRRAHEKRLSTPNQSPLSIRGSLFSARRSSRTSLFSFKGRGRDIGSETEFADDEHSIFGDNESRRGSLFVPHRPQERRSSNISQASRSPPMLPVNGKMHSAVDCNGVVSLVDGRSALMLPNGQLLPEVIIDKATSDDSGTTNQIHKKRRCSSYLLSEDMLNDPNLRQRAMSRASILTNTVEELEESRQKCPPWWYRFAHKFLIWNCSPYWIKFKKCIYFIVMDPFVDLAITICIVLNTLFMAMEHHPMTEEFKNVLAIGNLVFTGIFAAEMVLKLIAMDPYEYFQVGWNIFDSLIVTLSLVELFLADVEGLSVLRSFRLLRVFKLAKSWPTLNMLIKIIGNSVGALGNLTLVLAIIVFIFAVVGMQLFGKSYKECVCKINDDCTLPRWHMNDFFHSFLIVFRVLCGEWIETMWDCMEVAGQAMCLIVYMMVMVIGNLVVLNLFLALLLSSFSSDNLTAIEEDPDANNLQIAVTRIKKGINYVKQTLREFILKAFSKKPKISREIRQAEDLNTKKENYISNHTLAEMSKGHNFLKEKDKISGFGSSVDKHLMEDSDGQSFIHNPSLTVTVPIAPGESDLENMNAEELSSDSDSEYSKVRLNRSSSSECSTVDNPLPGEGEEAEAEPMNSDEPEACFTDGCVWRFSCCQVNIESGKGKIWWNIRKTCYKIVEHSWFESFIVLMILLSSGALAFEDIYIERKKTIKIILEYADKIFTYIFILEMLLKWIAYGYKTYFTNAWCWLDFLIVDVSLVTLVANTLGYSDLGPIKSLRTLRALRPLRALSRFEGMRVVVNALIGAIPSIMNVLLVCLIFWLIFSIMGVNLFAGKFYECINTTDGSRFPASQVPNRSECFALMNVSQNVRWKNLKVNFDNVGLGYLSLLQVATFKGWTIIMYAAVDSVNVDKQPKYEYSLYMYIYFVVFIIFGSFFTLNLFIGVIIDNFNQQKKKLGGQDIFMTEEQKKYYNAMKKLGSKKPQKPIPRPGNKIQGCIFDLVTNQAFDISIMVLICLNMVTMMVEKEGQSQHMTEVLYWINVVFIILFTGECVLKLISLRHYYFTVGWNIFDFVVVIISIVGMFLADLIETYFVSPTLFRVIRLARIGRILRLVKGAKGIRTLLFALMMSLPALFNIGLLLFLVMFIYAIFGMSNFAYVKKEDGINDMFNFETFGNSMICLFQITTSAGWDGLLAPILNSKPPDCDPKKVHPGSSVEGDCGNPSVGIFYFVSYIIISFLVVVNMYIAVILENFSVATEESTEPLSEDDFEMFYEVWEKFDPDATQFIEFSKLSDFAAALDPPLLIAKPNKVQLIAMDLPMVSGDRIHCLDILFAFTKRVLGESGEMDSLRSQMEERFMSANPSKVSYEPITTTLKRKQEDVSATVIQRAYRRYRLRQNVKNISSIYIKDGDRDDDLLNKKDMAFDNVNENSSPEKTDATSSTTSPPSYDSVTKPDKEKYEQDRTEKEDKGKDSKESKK

Compound: Cn1nccc1-c1cc(C(F)(F)F)ccc1-c1c[nH]c2nc(S(=O)(=O)Nc3ncns3)ccc12 [Example 25, 3-(2-(1-Methyl-1H-Pyrazol-5-yl)-4-(Trifluoromethyl)Phenyl)-N-(1,2,4-Thiadiazol-5-yl)-1H-Pyrrolo[2,3-B]Pyridine-6-Sulfonamide]
- IC50 [1]: 6.7 µM
- IC50 [2]: 8.55 µM

Compound: Cn1cc(-c2ccncc2Cl)c2ccc(S(=O)(=O)Nc3ncns3)cc21 [Example 51, 3-(3-Chloropyridin-4-Yl)-1-Methyl-N-(1,2,4-Thiadiazol-5-Yl)-1H-Indole-6-Sulfonamide]
- IC50 [1]: 8.53 µM
- IC50 [2]: > 10 µM

Compound: Cn1cc(-c2ccc(C(F)(F)F)cc2-c2ccn(C3CNC3)n2)c2ccc(S(=O)(=O)Nc3ncns3)cc21 [Example 19, 3-(2-(1-(Azetidin-3-yl)-1H-Pyrazol-3-yl)-4-(Trifluoromethyl)Phenyl)-1-Methyl-N-(1,2,4-Thiadiazol-5-yl)-1H-Indole-6-Sulfonamide Hydrochloride]
- IC50 [1]: 0.263 µM
- IC50 [2]: > 10 µM

Compound: Cn1cc(-c2ccc(C(F)(F)F)cc2C2=CCNCC2)c2ccc(S(=O)(=O)Nc3nccs3)cc21 [Example 65, 1-Methyl-3-(2-(1,2,3,6-Tetrahydropyridin-4-Yl)-4-(Trifluoromethyl)Phenyl)-N-(Thiazol-2-Yl)-1H-Indole-6-Sulfonamide 2,2,2-Trifluoroacetate]
- IC50 [1]: 0.269 µM
- IC50 [2]: > 10 µM

Compound: COC(=O)n1cc(-c2ccc(C(F)(F)F)cc2-c2ccnn2C)c2ccc(S(=O)(=O)Nc3ncns3)cc21 [Example 6, Methyl 6-(N-(1,2,4-Thiadiazol-5-yl)Sulfamoyl)-3-(2-(1-Methyl-1H-Pyrazol-5-yl)-4-(Trifluoromethyl)Phenyl)-1H-Indole-1-Carboxylate]
- IC50 [1]: 0.356 µM
- IC50 [2]: > 10 µM

Compound: Cn1nccc1-c1cc(C(F)(F)F)ccc1-c1cn(C)c2cc(S(=O)(=O)Nc3nc(Br)ns3)ccc12 [Example 50, N-(3-Bromo-1,2,4-Thiadiazol-5-Yl)-1-Methyl-3-(2-(1-Methyl-1H-Pyrazol-5-Yl)-4-(Trifluoromethyl)Phenyl)-1H-Indole-6-Sulfonamide]
- IC50 [1]: 1.38 µM
- IC50 [2]: > 10 µM

Compound: CC(=O)n1cc(-c2ccc(C(F)(F)F)cc2-c2ccnn2C)c2ccc(S(=O)(=O)Nc3ncns3)cc21 [Example 4, 1-Acetyl-3-(2-(1-Methyl-1H-Pyrazol-5-yl)-4-(Trifluoromethyl)Phenyl)-N-(1,2,4-Thiadiazol-5-yl)-1H-Indole-6-Sulfonamide]
- IC50 [1]: 0.0505 µM
- IC50 [2]: > 10 µM

Compound: Cn1cc(-c2ccc(C(F)(F)F)cc2Cl)c2ccc(S(=O)(=O)Nc3ncns3)cc21 [Example 23, 3-(2-Chloro-4-(Trifluoromethyl)Phenyl)-1-Methyl-N-(1,2,4-Thiadiazol-5-yl)-1H-Indole-6-Sulfonamide]
- IC50 [1]: 0.687 µM
- IC50 [2]: > 10 µM

Compound: Cc1sc(NS(=O)(=O)c2ccc3c(-c4ccc(C(F)(F)F)cc4-c4ccnn4C)cn(C)c3c2)nc1C(F)(F)F [Example 20, 1-Methyl-3-(2-(1-Methyl-1H-Pyrazol-5-yl)-4-(Trifluoromethyl)Phenyl)-N-(5-Methyl-4-(Trifluoromethyl)Thiazol-2-yl)-1H-Indole-6-Sulfonamide]
- inhibition at 4.9 µM ([1]; HEK293, at 4.9 μM): 36.2%
- IC50 [2]: > 10 µM
